Data: patent publication US11498920B2, “4-(1H-imidazol-5-yl)-1H-pyrrolo[2, 3-b] pyridines for use in the treatment of leukaemias, lymphomas and solid tumors” (MASARYKOVA UNIVERZITA, priority 2018, dated 2022)

Legend:
[1] = test system: Maver-1 cells (mantle cell lymphoma); experiment: Cytotoxicity, TMRE flow cytometry viability, Maver-1 cells (Example II.1); type: cell-based; settings: Homo sapiens, Maver1, 24 hours, TMRE positive cells normalized to control, ratio to PF670462, <1 = higher cytotoxicity than PF670462, read-out: Viability of cells, Compound of formula I (100 μM), relative to PF670462 (100 μM), Maver-1 cells (mantle cell lymphoma)
Protocol: (§1) The leukemia and lymphoma-derived cell lines [MEC-1 cell line (derived from chronic lymphocytic leukemia—CLL), Nalm-16 (acute lymphocytic leukemia—ALL), K562 (chronic myeloid leukemia—CML), HL-60 (acute myeloid leukemia—AML), Maver-1 and Mino (mantle cell lymphoma—MCL), BL-41 (Burkitt lymphoma—BL), WSU-NHL (follicular lymphoma—FL), SUDHL (diffuse large B-cell lymphoma—DLBCL)], primary CLL cells and nonmalignant control primary cells were cultured in suspension in flasks under the following conditions: RPMI 1640 medium (Hyclone) supplemented with 10% fetal bovine serum (FBS, Gibco) and 1% penicillin/streptomycin (Life Technologies), 37° C., 5% CO2 and 95% relative humidity, with optimal culture cell density 5×10^6 cells/mL in case of primary cells and 0.5-1×10^6 cells/mL in case of cell lines. The adherent cell lines [A375 (derived from malignant melanoma), MDA-MB-231 and MCF-7 (breast cancer), MIA-PA-CA and PANC1 (pancreatic cancer), PC3 (prostate cancer), OVCAR4 (ovarian cancer) and HEPG2 (hepatocellular carcinoma)] were cultured on plates under the same conditions using RPMI1640 or DMEM medium (Gibco) according to instructions provided by the distributor (DSMZ/ATCC).
(§2) Cytotoxicity of compounds of formula I was tested in two models representative for leukemia (primary CLL cells) and lymphoma (Maver-1 cells). The primary CLL cells and Maver-1 cells (MCL-derived) were incubated with inhibitors at 100 μM concentration or corresponding amount of solvent (DMSO, Sigma Aldrich) as 0.1×10^6 cells/200 μl per well in a 96-well plate. Experiments were performed in technical duplicates. Viability of cells was assessed after 6 hours in case of primary CLL cells and after 24 hours in case of Maver-1 cells.
(§3) Apoptosis-induced reduction of mitochondrial potential is detected as lower TMRE fluorescence. […] Relative values are presented, showing ratio to the effect of PF670462 (as the closest prior art). Relative value <1 indicates a higher cytotoxicity than PF670462.

primary CLL cells = experiment: Cytotoxicity, TMRE flow cytometry viability, primary CLL cells (Example II.1); type: cell-based; settings: Homo sapiens, CLL cell, 6 hours, TMRE positive cells normalized to control, ratio to PF670462, <1 = higher cytotoxicity than PF670462, read-out: Viability of cells, Compound of formula I (100 μM), relative to PF670462 (100 μM), CLL primary cells
Protocol: as §1, §2, §3

Structure (SMILES)	viability at 100 µM [1]	viability at 100 µM (primary CLL cells)
CN(C)CCS(=O)(=O)N[C@H]1CC[C@@H](n2cnc(-c3ccc(F)cc3)c2-c2ccnc3[nH]ccc23)CC1 [Preparative Example 98, 2-(dimethylamino)-N-((1R,4s)-4-(4-(4-fluorophenyl)-5-(1H-pyrrolo[2,3-b]pyridin-4-yl)-1H-imidazol-1-yl)cyclohexyl)ethane-1-sulfonamide]	3%	16%
CN(C)CCCS(=O)(=O)N[C@H]1CC[C@@H](n2cnc(-c3ccc(F)cc3)c2-c2ccnc3[nH]ccc23)CC1 [Preparative Example 100, 3-(dimethylamino)-N-((1R,4s)-4-(4-(4-fluorophenyl)-5-(1H-pyrrolo[2,3-b]pyridin-4-yl)-1H-imidazol-1-yl)cyclohexyl)propane-1-sulfonamide]	0%	1%
Cc1nc(Cn2cnc(-c3ccc(F)cc3)c2-c2ccnc3[nH]ccc23)cs1 [Preparative Example 108, 4-((4-(4-fluorophenyl)-5-(1H-pyrrolo[2,3-b]pyridin-4-yl)-1H-imidazol-1-yl)methyl)-2-methylthiazole]	82%	74%
Fc1ccc(-c2ncn(Cc3cc[nH]n3)c2-c2ccnc3[nH]ccc23)cc1 [Preparative Example 109, 4-(1-((1H-pyrazol-3-yl)methyl)-4-(4-fluorophenyl)-1H-imidazol-5-yl)-1H-pyrrolo[2,3-b]pyridine]	31%	87%
Fc1ccc(-c2ncn(CC3CNCCO3)c2-c2ccnc3[nH]ccc23)cc1 (stereo not shown) [Preparative Example 114, 2-((4-(4-fluorophenyl)-5-(1H-pyrrolo[2,3-b]pyridin-4-yl)-1H-imidazol-1-yl)methyl)morpholine]	27%	78%
CN(C)[C@H]1C[C@H](n2cnc(-c3ccc(F)cc3)c2-c2ccnc3[nH]ccc23)C1 [Preparative Example 124, (1S,3r)-3-(4-(4-fluorophenyl)-5-(1H-pyrrolo[2,3-b]pyridin-4-yl)-1H-imidazol-1-yl)-N,N-dimethylcyclobutan-1-amine]	53%	55%
CN(C)[C@H]1CC[C@H](n2cnc(-c3ccc(F)cc3)c2-c2ccnc3[nH]ccc23)CC1 [Preparative Example 125, (1S,4r)-4-(4-(4-fluorophenyl)-5-(1H-pyrrolo[2,3-b]pyridin-4-yl)-1H-imidazol-1-yl)-N,N-dimethylcyclohexan-1-amine]	26%	28%
CN1CCC(Cn2cnc(-c3ccc(F)cc3)c2-c2ccnc3[nH]ccc23)C1 (stereo not shown) [Preparative Example 129, 4-(4-(4-fluorophenyl)-1-((1-methylpyrrolidin-3-yl)methyl)-1H-imidazol-5-yl)-1H-pyrrolo[2,3-b]pyridine]	86%	78%
Fc1ccc(-c2ncn(C3CCCCC3)c2-c2ccnc3[nH]cc(Br)c23)cc1 [Preparative Example 134, 3-bromo-4-(1-cyclohexyl-4-(4-fluorophenyl)-1H-imidazol-5-yl)-1H-pyrrolo[2,3-b]pyridine]	1%	22%
Fc1ccc(-c2nc(Br)n(C3CCCCC3)c2-c2ccnc3[nH]ccc23)cc1 [Preparative Example 135, 4-(2-bromo-1-cyclohexyl-4-(4-fluorophenyl)-1H-imidazol-5-yl)-1H-pyrrolo[2,3-b]pyridine]	0%	9%
CSc1nc(-c2ccc(F)cc2)c(-c2ccnc3[nH]ccc23)n1C1CCCCC1 [Preparative Example 136, 4-(1-cyclohexyl-4-(4-fluorophenyl)-2-(methylthio)-1H-imidazol-5-yl)-1H-pyrrolo[2,3-b]pyridine]	0%	47%
CN1CCC(Cn2cnc(-c3ccc(F)c(Cl)c3)c2-c2ccnc3[nH]ccc23)CC1 [Preparative Example 141, 4-(4-(3-chloro-4-fluorophenyl)-1-((1-methylpiperidin-4-yl)methyl)-1H-imidazol-5-yl)-1H-pyrrolo[2,3-b]pyridine]	0%	43%
CN(C)[C@H]1CC[C@H](n2cnc(-c3ccc(F)c(Cl)c3)c2-c2ccnc3[nH]ccc23)CC1 [Preparative Example 142, (1R,4r)-4-(4-(3-chloro-4-fluorophenyl)-5-(1H-pyrrolo[2,3-b]pyridin-4-yl)-1H-imidazol-1-yl)-N,N-dimethylcyclohexan-1-amine]	0%	5%
Fc1ccc(-c2ncn(C3CCCCC3)c2-c2ccnc3[nH]cc(Cl)c23)cc1 [Preparative Example 144, 3-chloro-4-(1-cyclohexyl-4-(4-fluorophenyl)-1H-imidazol-5-yl)-1H-pyrrolo[2,3-b]pyridine]	1%	36%
CC(c1ccccc1)n1cnc(-c2ccc(F)cc2)c1-c1ccnc2[nH]ccc12 (stereo not shown) [Preparative Example 146, 4-(4-(4-fluorophenyl)-1-(1-phenylethyl)-1H-imidazol-5-yl)-1H-pyrrolo[2,3-b]pyridine]	0%	16%
Fc1ccc(-c2ncn(Cc3c[nH]nn3)c2-c2ccnc3[nH]ccc23)cc1 [Preparative Example 153, 4-(1-((1H-1,2,3-triazol-4-yl)methyl)-4-(4-fluorophenyl)-1H-imidazol-5-yl)-1H-pyrrolo[2,3-b]pyridine]	87%	117%
Fc1ccc(-c2nc(Cl)n(C3CCCCC3)c2-c2ccnc3[nH]ccc23)cc1 [Preparative Example 155, 4-(2-chloro-1-cyclohexyl-4-(4-fluorophenyl)-1H-imidazol-5-yl)-1H-pyrrolo[2,3-b]pyridine]	0%	1%
CCOC(=O)c1nc(-c2ccc(F)cc2)c(-c2ccnc3[nH]ccc23)n1C1CCCCC1 [Preparative Example 163, ethyl 1-cyclohexyl-4-(4-fluorophenyl)-5-(1H-pyrrolo[2,3-b]pyridin-4-yl)-1H-imidazole-2-carboxylate]	10%	57%
NC(=O)c1nc(-c2ccc(F)cc2)c(-c2ccnc3[nH]ccc23)n1C1CCCCC1 [Preparative Example 165, 1-cyclohexyl-4-(4-fluorophenyl)-5-(1H-pyrrolo[2,3-b]pyridin-4-yl)-1H-imidazole-2-carboxamide]	0%	0%
OCc1nc(-c2ccc(F)cc2)c(-c2ccnc3[nH]ccc23)n1C1CCCCC1 [Preparative Example 166, (1-cyclohexyl-4-(4-fluorophenyl)-5-(1H-pyrrolo[2,3-b]pyridin-4-yl)-1H-imidazol-2-yl)methanol]	4%	7%
CN(C)Cc1nc(-c2ccc(F)cc2)c(-c2ccnc3[nH]ccc23)n1C1CCCCC1 [Preparative Example 169, 1-(1-cyclohexyl-4-(4-fluorophenyl)-5-(1H-pyrrolo[2,3-b]pyridin-4-yl)-1H-imidazol-2-yl)-N,N-dimethylmethanamine]	0%	12%
Nc1cc(-c2c(-c3ccc(F)cc3)ncn2C2CCCCC2)c2cc[nH]c2n1 [Preparative Example 170, 4-(1-cyclohexyl-4-(4-fluorophenyl)-1H-imidazol-5-yl)-1H-pyrrolo[2,3-b]pyridin-6-amine]	6%	56%
Fc1ccc(-c2ncn(Cc3ccccc3)c2-c2ccnc3[nH]ccc23)cc1F [Preparative Example 179, 4-(1-benzyl-4-(3,4-difluorophenyl)-1H-imidazol-5-yl)-1H-pyrrolo[2,3-b]pyridine]	0%	1%
